Results on 13 molecules are retold here after patent US20260297060A1, “COMPOUNDS FOR THE DEGRADATION OF MUTANT BRAF” (C4 THERAPEUTICS, INC., priority 2023, published 2026).

Where two headings read alike, the source gives them in different places.

This assay addresses T1, BRAF V600E (Homo sapiens, UniProt P15056+Q96SW2, V600E).
T1 construct: knock-in of the HiBiT tag to the endogenous BRAF V600E locus; host or cells: A375.10 (A375 clonal line, CRISPR HiBiT knock-in at the endogenous BRAF V600E locus)
Nature of the assay: BRAF V600E HiBiT Degradation Assay. In kind it is cell-based. The essentials:
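Endogenous HiBiT knock-in on BRAF V600E in A375 cells (clone A375.10); 11-point half-log series, top 10 μM, 2, 6 or 24 h at 37° C. Lytic HiBiT luminescence, background-subtracted, normalized to DMSO; 4-parameter fit gives DC50, Emax (residual protein) and IP (inflection point).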

The mark [1] stands for this setting: A375.10 cells, BRAF V600E, 2 hours, inflection point, read-out: HiBiT-Degradation A375.10 BRAF 2 hours IP.
Setting [2] is: A375.10 cells, BRAF V600E, 2 hours, read-out: HiBiT-Degradation A375.10 BRAF 2 hours DC50.
The mark [3] stands for this setting: A375.10 cells, BRAF V600E, 2 hours, residual protein remaining, read-out: HiBiT-Degradation A375.10 BRAF 2 hours Emax.
Where [4] appears, read: A375.10 cells, BRAF V600E, 6 hours, inflection point, read-out: HiBiT-Degradation A375.10 BRAF 6 hours IP.
Where [5] appears, read: A375.10 cells, BRAF V600E, 6 hours, read-out: HiBiT-Degradation A375.10 BRAF 6 hours DC50.
Where [6] appears, read: A375.10 cells, BRAF V600E, 6 hours, residual protein remaining, read-out: HiBiT-Degradation A375.10 BRAF 6 hours Emax.
Where [7] appears, read: A375.10 cells, HiBiT, BRAF V600E, 24 hours, read-out: HiBiT-Degradation A375.10 BRAF 24 hours DC50.
[8] abbreviates: A375.10 cells, HiBiT, BRAF V600E, 24 hours, read-out: HiBiT-Degradation A375.10 BRAF 24 hours Emax.
Where [9] appears, read: A375.10 cells, HiBiT, BRAF V600E, 24 hours, read-out: HiBiT-Degradation A375.10 BRAF 24 hours IP.
Where [10] appears, read: read-out: HiBiT-Degradation A375.10 BRAF 2 hours Emax, A375.10 cells, BRAF V600E, 2 hours, residual protein remaining.

T1 sequence (P15056 whole entry V600E): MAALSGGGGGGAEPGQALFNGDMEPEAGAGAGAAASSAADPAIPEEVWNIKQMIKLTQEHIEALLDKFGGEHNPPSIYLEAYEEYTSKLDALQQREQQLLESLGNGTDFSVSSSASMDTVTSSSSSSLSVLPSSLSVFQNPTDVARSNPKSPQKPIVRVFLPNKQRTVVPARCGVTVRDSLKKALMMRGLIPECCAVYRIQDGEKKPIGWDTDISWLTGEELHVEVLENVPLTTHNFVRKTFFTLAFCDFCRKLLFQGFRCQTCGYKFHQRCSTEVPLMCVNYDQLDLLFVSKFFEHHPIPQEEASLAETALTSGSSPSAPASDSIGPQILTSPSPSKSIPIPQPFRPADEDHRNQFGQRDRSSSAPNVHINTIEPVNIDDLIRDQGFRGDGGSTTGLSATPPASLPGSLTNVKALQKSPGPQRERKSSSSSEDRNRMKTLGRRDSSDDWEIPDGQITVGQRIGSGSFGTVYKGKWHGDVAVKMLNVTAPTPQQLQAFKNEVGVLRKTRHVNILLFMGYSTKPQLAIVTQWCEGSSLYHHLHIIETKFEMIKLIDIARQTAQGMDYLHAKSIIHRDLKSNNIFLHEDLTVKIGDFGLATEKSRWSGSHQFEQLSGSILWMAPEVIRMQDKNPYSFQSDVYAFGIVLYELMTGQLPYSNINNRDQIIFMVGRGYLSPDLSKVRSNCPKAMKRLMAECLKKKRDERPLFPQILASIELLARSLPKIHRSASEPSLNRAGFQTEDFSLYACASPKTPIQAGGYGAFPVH
T1 sequence (Q96SW2 whole entry): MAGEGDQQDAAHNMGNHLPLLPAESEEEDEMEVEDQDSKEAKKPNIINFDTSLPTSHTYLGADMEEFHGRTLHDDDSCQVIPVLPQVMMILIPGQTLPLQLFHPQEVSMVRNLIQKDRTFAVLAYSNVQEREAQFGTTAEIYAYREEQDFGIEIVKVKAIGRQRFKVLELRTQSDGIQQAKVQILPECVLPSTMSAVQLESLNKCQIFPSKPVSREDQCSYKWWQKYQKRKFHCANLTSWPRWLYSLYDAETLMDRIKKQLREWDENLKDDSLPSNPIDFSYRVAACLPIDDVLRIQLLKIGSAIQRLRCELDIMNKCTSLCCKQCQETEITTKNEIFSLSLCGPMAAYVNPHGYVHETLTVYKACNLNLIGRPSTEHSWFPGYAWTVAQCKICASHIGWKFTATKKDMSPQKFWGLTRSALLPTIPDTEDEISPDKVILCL
T1 sequence (Q16531 whole entry partner): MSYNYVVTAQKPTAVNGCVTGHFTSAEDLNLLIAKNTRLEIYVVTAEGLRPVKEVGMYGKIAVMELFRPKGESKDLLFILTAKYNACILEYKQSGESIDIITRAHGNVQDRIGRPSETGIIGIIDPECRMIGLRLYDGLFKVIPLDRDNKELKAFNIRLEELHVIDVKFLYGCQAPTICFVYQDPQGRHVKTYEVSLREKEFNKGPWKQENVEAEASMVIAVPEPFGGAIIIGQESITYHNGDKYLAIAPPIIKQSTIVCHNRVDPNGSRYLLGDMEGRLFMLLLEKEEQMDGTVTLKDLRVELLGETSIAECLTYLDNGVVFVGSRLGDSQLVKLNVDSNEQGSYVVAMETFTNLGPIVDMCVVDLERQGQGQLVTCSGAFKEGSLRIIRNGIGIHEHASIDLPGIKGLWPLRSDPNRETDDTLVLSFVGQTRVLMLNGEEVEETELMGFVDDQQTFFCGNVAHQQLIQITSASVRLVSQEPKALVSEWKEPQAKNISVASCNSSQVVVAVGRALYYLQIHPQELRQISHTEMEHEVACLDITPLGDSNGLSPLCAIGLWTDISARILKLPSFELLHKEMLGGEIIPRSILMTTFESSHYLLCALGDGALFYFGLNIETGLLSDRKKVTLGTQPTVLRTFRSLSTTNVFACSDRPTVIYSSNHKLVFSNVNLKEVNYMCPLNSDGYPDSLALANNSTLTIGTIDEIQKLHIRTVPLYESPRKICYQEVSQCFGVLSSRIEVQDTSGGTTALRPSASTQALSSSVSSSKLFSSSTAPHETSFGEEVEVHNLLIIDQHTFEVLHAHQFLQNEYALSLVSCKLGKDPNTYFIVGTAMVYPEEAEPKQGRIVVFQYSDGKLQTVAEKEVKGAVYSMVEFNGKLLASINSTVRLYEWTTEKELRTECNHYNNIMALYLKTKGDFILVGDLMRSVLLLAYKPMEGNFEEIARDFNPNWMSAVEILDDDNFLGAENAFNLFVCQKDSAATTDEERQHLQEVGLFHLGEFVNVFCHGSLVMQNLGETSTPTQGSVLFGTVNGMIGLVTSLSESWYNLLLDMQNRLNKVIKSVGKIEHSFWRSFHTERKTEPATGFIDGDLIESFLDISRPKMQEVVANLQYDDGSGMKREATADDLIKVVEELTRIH

Turning to `CCN(C)S(=O)(=O)Nc1ccc(F)c(Oc2ccc3ncn(C4CC5(CCN(C6CCC(c7cc8c(cc7F)c(N7CCC(=O)NC7=O)nn8C)CC6F)CC5)C4)c(=O)c3c2)c1F` (single isomer, unassigned) [Compound 184], the DC50 is, setting by setting: under setting [1], under 1000 nM; under setting [2], under 1000 nM; under setting [4], under 1000 nM; under setting [5], under 1000 nM; under setting [7], under 1000 nM; under setting [9], under 1000 nM. The Emax runs as follows: under setting [3], under 50%; under setting [6], under 50%; under setting [8], under 50%.

Regarding `CCN(C)S(=O)(=O)Nc1ccc(F)c(Oc2ccc3ncc([C@H]4COC5(CCN(C6CCC(c7cc8c(cc7F)c(N7CCC(=O)NC7=O)nn8C)CC6F)CC5)C4)nc3c2)c1C#N` (single isomer, unassigned) [Compound 160], the DC50 runs as follows: under setting [1], under 1000 nM; under setting [2], under 1000 nM. The Emax under setting [10] was under 50%.

Turning to `CCN(C)S(=O)(=O)Nc1ccc(F)c(Oc2ccc3ncn([C@H]4COC5(CCN(C6CCC(c7ccc(NC8CCC(=O)NC8=O)cc7F)CC6)CC5)C4)c(=O)c3c2F)c1C#N` (single isomer, unassigned) [Compound 50], the DC50 is under 1000 nM under setting [1]; under 1000 nM under setting [2]; under 1000 nM under setting [4]; under 1000 nM under setting [5]; under 1000 nM under setting [7]; under 1000 nM under setting [9]. The Emax runs as follows: under setting [3], under 50%; under setting [6], under 50%; under setting [8], under 50%.

Regarding `CCN(C)S(=O)(=O)Nc1ccc(F)c(Oc2ccc3ncc(OC4CC5(CCN(C6CCC(c7cc8c(cc7F)c(N7CCC(=O)NC7=O)nn8C)CC6)CC5)C4)nc3c2)c1C#N` (single isomer, unassigned) [Compound 218, 7-[2-cyano-3-[[ethyl(methyl)sulfamoyl]amino]-6-fluoro-phenoxy]-2-[[7-[4-[3-(2,4-dioxohexahydropyrimidin-1-yl)-5-fluoro-1-methyl-indazol-6-yl]cyclohexyl]-7-azaspiro[3.5]nonan-2-yl]oxy]quinoxaline], the DC50 is, setting by setting: under setting [1], under 1000 nM; under setting [2], under 1000 nM; under setting [7], under 1000 nM; under setting [9], under 1000 nM. The Emax was under 50% under setting [8] and under 50% under setting [10].

For `CCN(C)S(=O)(=O)Nc1ccc(F)c(Oc2ccc3ncn([C@H]4COC5(CCN(C6CCC(c7cc8c(cc7F)c(N7CCC(=O)NC7=O)nn8C)CC6)CC5)C4)c(=O)c3c2)c1F` (single isomer, unassigned) [Compound 71], the DC50 under setting [1] is under 1000 nM; the DC50 under setting [2] was under 1000 nM; the DC50 under setting [4] was under 1000 nM; the DC50 under setting [5] is under 1000 nM; the DC50 under setting [7] was under 1000 nM; the DC50 under setting [9] is under 1000 nM. Also, the maximum response (Emax) was under 50% under setting [3], under 50% under setting [6] and under 50% under setting [8].

Take `CCN(C)S(=O)(=O)Nc1ccc(F)c(Oc2ccc3ncn([C@H]4COC5(CCC(N6CCC(c7cc8c(cc7F)c(N7CCC(=O)NC7=O)nn8C)C(F)(F)C6)CC5)C4)c(=O)c3c2)c1C#N` (single isomer, unassigned) [Compound 39]: the “HiBiT-Degradation A375.10 BRAF 2 hours Emax” value was “*** (<=50%)”. For the same molecule, the DC50 under setting [1] was under 1000 nM. Besides, the DC50 under setting [2] is under 1000 nM. Further, the DC50 under setting [4] was under 1000 nM. Further, the DC50 under setting [5] is under 1000 nM. In addition, the “HiBiT-Degradation A375.10 BRAF 6 hours Emax” value (A375.10 cells, BRAF V600E, 6 hours, residual protein remaining) is given as “*** (<=50%)”. Moreover, the “HiBiT-Degradation A375.10 BRAF 24 hours Emax” value (A375.10 cells, HiBiT, BRAF V600E, 24 hours) is given as “*** (<=50%)”. Also, the DC50 under setting [7] is under 1000 nM. For the same molecule, under setting [9], the DC50 is under 1000 nM.

For `Cn1nc(N2CCC(=O)NC2=O)c2cc(F)c(C3CCC(N4CCC5(CC4)CC(n4cnc6ccc(Oc7c(F)ccc(NS(=O)(=O)C8CCCC8)c7C#N)cc6c4=O)C5)CC3)cc21` (single isomer, unassigned) [Compound 93, N-[2-cyano-3-[3-[7-[4-[3-(2,4-dioxohexahydropyrimidin-1-yl)-5-fluoro-1-methyl-indazol-6-yl]cyclohexyl]-7-azaspiro[3.5]nonan-2-yl]-4-oxo-quinazolin-6-yl]oxy-4-fluoro-phenyl]cyclopentanesulfonamide], the DC50 by setting is: under setting [1], under 1000 nM; under setting [2], under 1000 nM; under setting [4], under 1000 nM; under setting [5], under 1000 nM; under setting [7], under 1000 nM; under setting [9], under 1000 nM. For the same molecule, the Emax was under 50% under setting [6], under 50% under setting [8] and under 50% under setting [10].

As for `CCN(C)S(=O)(=O)Nc1ccc(F)c(C(=O)c2ccc3ncn(C4CC5(CCN(C6CCC(c7cc8c(cc7F)c(N7CCC(=O)NC7=O)nn8C)CC6)CC5)C4)c(=O)c3c2)c1F` (single isomer, unassigned) [Compound 182, 3-[7-[4-[3-(2,4-dioxohexahydropyrimidin-1-yl)-5-fluoro-1-methyl-indazol-6-yl]cyclohexyl]-7-azaspiro[3.5]nonan-2-yl]-6-[3-[[ethyl(methyl)sulfamoyl]amino]-2,6-difluoro-benzoyl]-4-oxo-quinazoline], the DC50 by setting is: under setting [1], under 1000 nM; under setting [2], 1000 to 10000 nM; under setting [4], under 1000 nM; under setting [5], under 1000 nM; under setting [7], under 1000 nM; under setting [9], under 1000 nM. The Emax runs as follows: under setting [3], 50 to 90%; under setting [6], under 50%; under setting [8], under 50%.

On to `CCN(C)S(=O)(=O)Nc1ccc(F)c(Oc2ccc3ncn([C@@H]4COC5(CCN(C6CCC(c7cc8c(cc7F)c(N7CCC(=O)NC7=O)nn8C)CC6)CC5)C4)c(=O)c3c2F)c1C#N` (single isomer, unassigned) [Compound 46], for which the DC50 is, setting by setting: under setting [1], under 1000 nM; under setting [2], under 1000 nM; under setting [4], under 1000 nM; under setting [5], under 1000 nM; under setting [7], under 1000 nM; under setting [9], under 1000 nM. Besides, the Emax under setting [6] is under 50%, the Emax under setting [8] is under 50% and the Emax under setting [10] was under 50%.

With `CCN(C)S(=O)(=O)Nc1ccc(F)c(Oc2ccc3ncn([C@H]4COC5(CCN(C6CC7(C6)CN(c6cc8c(cc6F)c(N6CCC(=O)NC6=O)nn8C)C7)CC5)C4)c(=O)c3c2)c1C#N` [Compound 26, (3R)-3-[6-[2-cyano-3-[[ethyl(methyl)sulfamoyl]amino]-6-fluoro-phenoxy]-4-oxo-quinazolin-3-yl]-8-[2-[3-(2,4-dioxohexahydropyrimidin-1-yl)-5-fluoro-1-methyl-indazol-6-yl]-2-azaspiro[3.3]heptan-6-yl]-1-oxa-8-azaspiro[4.5]decane], the DC50 is, setting by setting: under setting [1], under 1000 nM; under setting [2], under 1000 nM; under setting [4], under 1000 nM; under setting [5], under 1000 nM; under setting [7], under 1000 nM; under setting [9], under 1000 nM. The maximal response (Emax) under setting [6] is under 50%, the Emax under setting [8] was under 50% and the Emax under setting [10] was under 50%.

With `CCN(C)S(=O)(=O)Nc1ccc(F)c(Oc2ccc3ncn([C@H]4COC5(CCN(C6CCC(c7ccc(N[C@H]8CCC(=O)NC8=O)cc7F)CC6)CC5)C4)c(=O)c3c2)c1C#N` (single isomer, unassigned) [Compound 3], the DC50 was under 1000 nM under setting [1]; under 1000 nM under setting [2]; under 1000 nM under setting [4]; under 1000 nM under setting [5]; under 1000 nM under setting [7]; under 1000 nM under setting [9]. The Emax reads like this: under setting [3], under 50%; under setting [6], under 50%; under setting [8], under 50%.

Regarding `CCN(C)S(=O)(=O)Nc1ccc(F)c(Oc2ccc3ncn([C@H]4COC5(CCN(C6CCC(c7cc8c(cc7F)c(N7CCC(=O)NC7=O)nn8C)CC6)CC5)C4)c(=O)c3c2F)c1C#N` (single isomer, unassigned) [Compound 41], the DC50 is, setting by setting: under setting [1], under 1000 nM; under setting [2], under 1000 nM; under setting [4], under 1000 nM; under setting [5], under 1000 nM; under setting [7], under 1000 nM; under setting [9], under 1000 nM. In addition, the Emax by setting is: under setting [6], under 50%; under setting [8], under 50%; under setting [10], under 50%.

For the molecule `CCN(C)S(=O)(=O)Nc1ccc(F)c(Oc2ccc3ncn(C4CC5(CCN(C6CCC(c7cc8c(cc7F)c(N7CCC(=O)NC7=O)nn8C)CC6F)CC5)C4)c(=O)c3c2)c1C#N` (single isomer, unassigned) [Compound 86], the “HiBiT-Degradation A375.10 BRAF 2 hours Emax” value was “*** (<=50%)”. The DC50 under setting [1] is under 1000 nM. The DC50 under setting [2] was under 1000 nM.
